Patent US10206944B2, “Chondroitin for use in medicine” (ALTERGON S.A., priority 2012, dated 2019)

How the values were obtained:
type II collagen = test: Phenotype analysis with immunohistochemical tests on human chondrocytes; assay type: cell-based
Protocol: The evaluation of the chondrocyte phenotype of fresh cells extracted from human cartilage tissue samples and after 4, 7 and 10 days' growth in medium containing chondroitin or chondroitin sulphate was conducted with immunohistochemical tests, using the Envision+(DaKo) kit which uses an antibody for type II collagen, considered to be a specific marker for chondrocyte differentiation (Stokes et al., Biochem. J., 2001, 360:461-470).

Aggrecan = test: Real-Time PCR gene expression in human chondrocytes: aggrecan; assay type: cell-based; conditions: 1% w/v, ratio to untreated control
Protocol: (§1) To evaluate the biological effects of chondroitin on human chondrocyte cultures, the expression of a set of genes considered key to establishing the phenotype, and suitable markers for evaluating the quality of the tissue generated, was determined. The study was conducted on chondrocytes prepared from human cartilage, as reported in Example 2, the cells being grown in the presence of chondroitin or chondroitin sulphate. Using a standard procedure, 5*10^4 cells per well were seeded in a 24-well multiwell plate. The chondrocytes were grown in DMEM containing 1% w/v of chondroitin or chondroitin sulphate (endotoxin content ≤0.1 EU/mg). The cells were stimulated for 4, 7 and 10 days (Ishak et al., International J. of Pediatric Otorhinolaryngology, 2011, 75: 835-840), after which the RNA was extracted with Trizol Reagent, as described in the kit manual (Life Technologies Ltd, Milan, Italy). A qualitative morphological analysis of the cell culture was also conducted at the various times, in parallel with RNA extraction, by observing the corresponding samples at 4, 7 and 10 days under the optical microscope. The cells seeded at the three different times were observed under the microscope, and the images that best represented the cell growth conditions were acquired using a time-lapse videomicroscopy workstation. After RNA extraction, reverse transcription was performed with a total of 1 μg RNA and then with amplification by Real-Time PCR of genes which are specific markers for chondrocytes (Table 3).
(§2) Genes connected with matrix production, such as aggrecan, type I collagen, type II collagen and the Sox9 gene, the expression of which is closely correlated with the expression of type II collagen, were analysed as specific markers for differentiation and characterisation of chondrocytes. (Akiyama H., Mod Rheumatol., 2008, 18(3): 213-9; Yang et al., J. of Orthopaedic Res. 2011).
(§3) The gene expression of said markers on human chondrocytes cultured in basic medium (control) and with chondroitin treatment (C) or chondroitin sulphate treatment (CS) was analysed on cell cultures in the second and third growth phases.
(§4) The results of the gene expression analysis were reported as the average of at least 3 independent experiments for tests conducted in the presence of C or CS, on cells in phases 2 and 3.

Collagen Type I = test: Real-Time PCR gene expression in human chondrocytes: type I collagen; assay type: cell-based; conditions: for Fold Expression, Collagen Type I: 1% w/v, ratio to untreated control
Protocol: as §1, §2, §3, §4

Collagen Type II = test: Real-Time PCR gene expression in human chondrocytes: type II collagen; assay type: cell-based; conditions: 1% w/v, ratio to untreated control
Protocol: as §1, §2, §3, §4

Sox9 = test: Real-Time PCR gene expression in human chondrocytes: Sox9; assay type: cell-based; conditions: 1% w/v, ratio to untreated control
Protocol: as §1, §2, §3, §4

[1] = test system: Escherichia coli strain ATCC 25922; test: Inhibition of bacterial growth on plate, E. coli; assay type: cell-based
Protocol: The antibacterial activity of chondroitin (C) and chondroitin sulphate (CS) on the growth of Escherichia coli ATCC 25922 and Enterococcus faecalis ATCC 19433 on a solid medium in vitro was examined. The concentrations explored ranged from 40 μg/mL to 40 mg/mL of C or CS as final concentrations in the medium. Brain-heart infusion (Oxoid) was used as culture medium for E. coli ATCC 25922, and M17 (Oxoid) for E. faecalis ATCC 19433; both media were adjusted to the same pH and the same osmolarity before being solidified by adding agar and cooled. 100 μL of a bacterial suspension containing 10^2, 10^3 or 10^4 bacteria/mL was plated as inoculum. The plates inoculated were incubated in shakers in air at 37° C. for 16 h. The number of colonies was then counted on control plates in the absence of the substances under study and on plates at the various concentrations of C and CS. The data from the experiments for the two micro-organisms, conducted in triplicate for each of the conditions, are shown in tables 7 and 8.

HT-1376 cells = test: Flow cytometry of apoptotic and necrotic cells (Annexin V-FITC/PI); assay type: cell-based, human; design: unit not given here; conditions: 48 h, alone or combined
Protocol: Flow cytometry was used to evaluate the quantity of apoptotic or necrotic cells. Fluorescein isothiocyanate (Annexin V-FITC) combined with propidium iodide (PI) was used as marker; the apoptotic cells were Annexin V-FITC positive and PI negative, and the necrotic cells were Annexin V-FITC positive and PI positive. The cells were labelled by incubating them with Annexin V-FITC (Diagnostics MedSystems) and PI (Sigma) in a binding buffer (10 mM HEPES, pH 7.4, 150 mM NaCl, 5 mM KCl, 1 mM MgCl2, 2.5 mM CaCl2) for 10 min at ambient temperature, and then washing and resuspending the cell material in the same buffer. The apoptotic and necrotic cells were analysed by flow cytometry (FACScan, Becton-Dickinson), acquiring an average of 2×10^4 events per sample, with determinations in triplicate on three separate experiments.

[2] = 40 μg/mL, 10 bacteria inoculated
[3] = 40 μg/mL, 100 bacteria inoculated
[4] = 40 μg/mL, 1000 bacteria inoculated
[5] = 400 μg/mL, 10 bacteria inoculated
[6] = 400 μg/mL, 100 bacteria inoculated
[7] = 400 μg/mL, 1000 bacteria inoculated
[8] = 4 mg/mL, 10 bacteria inoculated
[9] = 4 mg/mL, 100 bacteria inoculated
[10] = 4 mg/mL, 1000 bacteria inoculated
[11] = 40 mg/mL, 10 bacteria inoculated
[12] = 40 mg/mL, 100 bacteria inoculated
[13] = 40 mg/mL, 1000 bacteria inoculated
[14] = 0.04 μg/mL of C or CS and 0.15 μg/mL of GEM
[15] = 5.7 μg/mL of C or CS and 1.7 μg/mL of MMC

chondroitin
positivity to type II collagen (type II collagen; after 4 days' treatment): strong positivity to type II collagen | positivity to type II collagen (type II collagen; longer times (7 and 10 days)): only maintained for longer times (7 and 10 days) in the cells treated with chondroitin | Fold Expression, Aggrecan (Aggrecan; phase II, 4 g): 0.08 ± 0.02 | Fold Expression, Aggrecan (Aggrecan; phase II, 7 g): 1.66±0.22 | Fold Expression, Aggrecan (Aggrecan; phase II, 10 g): 1.07 ± 0.15 | Fold Expression, Aggrecan (Aggrecan; phase III, 4 g): 0.16 ± 0.08 | Fold Expression, Aggrecan (Aggrecan; phase III, 7 g): 0.79 ± 0.2 | Fold Expression, Aggrecan (Aggrecan; phase III, 10 g): 2.3 ± 1.0 | Fold Expression, Collagen Type I (Collagen Type I; phase II, 4 g): 1.23 ± 0.29 | Fold Expression, Collagen Type I (Collagen Type I; phase II, 7 g): 1.03 ± 0.52 | Fold Expression, Collagen Type I (Collagen Type I; phase II, 10 g): 0.67 ± 0.20 | Fold Expression, Collagen Type I (Collagen Type I; phase III, 4 g): 0.24 ± 0.01 | Fold Expression, Collagen Type I (Collagen Type I; phase III, 7 g): 0.85 ± 0.49 | Fold Expression, Collagen Type I (Collagen Type I; phase III, 10 g): 0.59 ± 0.13 | reduction in expression of type I collagen (Collagen Type I; growth phase 2, long incubation times, versus control): 30% | Fold Expression, Collagen Type II (Collagen Type II; phase II, 4 g): 2.70 ± 0.32 | Fold Expression, Collagen Type II (Collagen Type II; phase II, 7 g): 2.4 ± 0.43 | Fold Expression, Collagen Type II (Collagen Type II; phase II, 10 g): 2.56 ± 0.75 | Fold Expression, Collagen Type II (Collagen Type II; phase III, 4 g): 1.69 ± 0.20 | Fold Expression, Collagen Type II (Collagen Type II; phase III, 7 g): 2.62 ± 0.47 | Fold Expression, Collagen Type II (Collagen Type II; phase III, 10 g): 2.3 ± 0.16 | Fold Expression, Sox9 (Sox9; phase II, 4 g): 1.87 ± 0.85 | Fold Expression, Sox9 (Sox9; phase II, 7 g): 1.16 ± 0.15 | Fold Expression, Sox9 (Sox9; phase II, 10 g): 1.78 ± 0.75 | Fold Expression, Sox9 (Sox9; phase III, 4 g): 3.68 ± 0.44 | Fold Expression, Sox9 (Sox9; phase III, 7 g): 1.09 ± 0.01 | Fold Expression, Sox9 (Sox9; phase III, 10 g): 0.53 ± 0.02 | Inhibition factor ([1]; 40 μg/mL): 1.3 | Qualitative valuation of inhibition ([1]; 40 μg/mL): mild | CFU after 16 h [1, 2]: 7 ± 2 CFU | CFU after 16 h [1, 3]: 80 ± 5 CFU | CFU after 16 h [1, 4]: 800 ± 70 CFU | Inhibition factor ([1]; 400 μg/mL): 9 | Qualitative valuation of inhibition ([1]; 400 μg/mL): significant | CFU after 16 h [1, 5]: 2 ± 1 CFU | CFU after 16 h [1, 6]: 10 ± 2 CFU | CFU after 16 h [1, 7]: 120 ± 30 CFU | Inhibition factor ([1]; 4 mg/mL): 66 | Qualitative valuation of inhibition ([1]; 4 mg/mL): high | CFU after 16 h [1, 8]: 0 CFU | CFU after 16 h [1, 9]: 1 ± 1 CFU | CFU after 16 h [1, 10]: 20 ± 4 CFU | Inhibition factor ([1]; 40 mg/mL): 1000 | Qualitative valuation of inhibition ([1]; 40 mg/mL): total inhibition of growth | CFU after 16 h [1, 11]: 0 CFU | CFU after 16 h [1, 12]: 0 CFU | CFU after 16 h [1, 13]: 0 CFU | Cell state: apoptotic advanced (HT-1376 cells; [14]): 7 ± 2 | Cell state: apoptotic early (HT-1376 cells; [14]): 6 ± 1 | Cell state: necrotic (HT-1376 cells; [14]): 28 ± 3 | Cell state: viable (HT-1376 cells; [14]): 59 ± 2 | Cell state: apoptotic advanced (HT-1376 cells; [15]): 2 ± 1 | Cell state: apoptotic early (HT-1376 cells; [15]): 1 ± 1 | Cell state: necrotic (HT-1376 cells; [15]): 41 ± 2 | Cell state: viable (HT-1376 cells; [15]): 56 ± 3

chondroitin sulphate [CS, reference compound]
positivity to type II collagen (type II collagen; after 4 days' treatment): strong positivity to type II collagen | Fold Expression, Aggrecan (Aggrecan; phase II, 4 g): 1.28 ± 0.75 | Fold Expression, Aggrecan (Aggrecan; phase II, 7 g): 0.72 ± 0.27 | Fold Expression, Aggrecan (Aggrecan; phase II, 10 g): 0.45 ± 0.19 | Fold Expression, Aggrecan (Aggrecan; phase III, 4 g): 0.17 ± 0.10 | Fold Expression, Aggrecan (Aggrecan; phase III, 7 g): 0.87 ± 0.20 | Fold Expression, Aggrecan (Aggrecan; phase III, 10 g): 0.59 ± 0.13 | Fold Expression, Collagen Type I (Collagen Type I; phase II, 4 g): 1.20 ± 0.56 | Fold Expression, Collagen Type I (Collagen Type I; phase II, 7 g): 1.44 ± 0.08 | Fold Expression, Collagen Type I (Collagen Type I; phase II, 10 g): 1.36 ± 0.05 | Fold Expression, Collagen Type I (Collagen Type I; phase III, 4 g): 0.34 ± 0.01 | Fold Expression, Collagen Type I (Collagen Type I; phase III, 7 g): 2.42 ± 0.88 | Fold Expression, Collagen Type I (Collagen Type I; phase III, 10 g): 1.09 ± 0.45 | Fold Expression, Collagen Type II (Collagen Type II; phase II, 4 g): 2.8 ± 0.75 | Fold Expression, Collagen Type II (Collagen Type II; phase II, 7 g): 1.25 ± 0.45 | Fold Expression, Collagen Type II (Collagen Type II; phase II, 10 g): 0.58 ± 0.29 | Fold Expression, Collagen Type II (Collagen Type II; phase III, 4 g): 0.50 ± 0.01 | Fold Expression, Collagen Type II (Collagen Type II; phase III, 10 g): 0.8 ± 0.45 | Fold Expression, Sox9 (Sox9; phase II, 4 g): 2.2 ± 1.20 | Fold Expression, Sox9 (Sox9; phase II, 7 g): 0.86 ± 0.31 | Fold Expression, Sox9 (Sox9; phase II, 10 g): 0.53 ± 0.02 | Fold Expression, Sox9 (Sox9; phase III, 4 g): 2.6 ± 1.21 | Fold Expression, Sox9 (Sox9; phase III, 7 g): 1.41 ± 0.04 | Fold Expression, Sox9 (Sox9; phase III, 10 g): 0.81 ± 0.05 | Inhibition factor ([1]; 40 μg/mL): 1 | CFU after 16 h [1, 2]: 7 ± 2 CFU | CFU after 16 h [1, 3]: 85 ± 7 CFU | CFU after 16 h [1, 4]: 860 ± 70 CFU | Inhibition factor ([1]; 400 μg/mL): 2 | Qualitative valuation of inhibition ([1]; 400 μg/mL): mild | CFU after 16 h [1, 5]: 5 ± 1 CFU | CFU after 16 h [1, 6]: 50 ± 5 CFU | CFU after 16 h [1, 7]: 400 ± 70 CFU | Inhibition factor ([1]; 4 mg/mL): 10 | Qualitative valuation of inhibition ([1]; 4 mg/mL): significant | CFU after 16 h [1, 8]: 0 CFU | CFU after 16 h [1, 9]: 9 ± 2 CFU | CFU after 16 h [1, 10]: 100 ± 10 CFU | Inhibition factor ([1]; 40 mg/mL): 330 | Qualitative valuation of inhibition ([1]; 40 mg/mL): high | CFU after 16 h [1, 11]: 0 CFU | CFU after 16 h [1, 12]: 0 CFU | CFU after 16 h [1, 13]: 3 ± 1 CFU | Cell state: apoptotic advanced (HT-1376 cells; [14]): 5 ± 1 | Cell state: apoptotic early (HT-1376 cells; [14]): 4 ± 1 | Cell state: necrotic (HT-1376 cells; [14]): 23 ± 2 | Cell state: viable (HT-1376 cells; [14]): 68 ± 4 | Cell state: apoptotic advanced (HT-1376 cells; [15]): 1 ± 1 | Cell state: apoptotic early (HT-1376 cells; [15]): 1 ± 1 | Cell state: necrotic (HT-1376 cells; [15]): 36 ± 2 | Cell state: viable (HT-1376 cells; [15]): 62 ± 4
